Results reported in patent publication US20250051338A1, “TYK2 DEGRADERS AND USES THEREOF” (Kymera Therapeutics, Inc., priority 2021, published 2025).

Key:
Type in all cases: cell-based
[1] = target: T1, TYK2 (Homo sapiens, UniProt P29597); test: TYK2 degradation MSD assay in EBV-B cells; set-up: endogenous in cells; host or cells: EBV-B cells; details: 4 to 24 hours incubation, read-out: TYK2 MSD DC50 rating in EBV-B
Procedure, shortened: (§1)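 Cells (0.4 million per well) were treated with a 9-point, 1:3 compound series from a top concentration of 1 to 10 μM for 4 to 24 hours at 37° C, then lysed in RIPA with protease/phosphatase inhibitors. Remaining TYK2 was quantified by sandwich MSD immunoassay; DC50 came from four-parameter nonlinear fits.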

[2] = target: T1, TYK2; test: TYK2 degradation MSD assay in OCI-LY10 cells; set-up: endogenous in cells; host or cells: EBV-B cells; details: 4 to 24 hours incubation, read-out: TYK2 MSD DC50 rating in OCI-LY10
Procedure, shortened: as §1

[3] = target: T1, TYK2; test: TYK2 degradation MSD assay in human PBMC cells; set-up: endogenous in cells; host or cells: human PBMC; details: 4 to 24 hours incubation, read-out: TYK2 MSD DC50 rating in human PBMC
Procedure, shortened: as §1

T1 sequence (P29597 whole entry): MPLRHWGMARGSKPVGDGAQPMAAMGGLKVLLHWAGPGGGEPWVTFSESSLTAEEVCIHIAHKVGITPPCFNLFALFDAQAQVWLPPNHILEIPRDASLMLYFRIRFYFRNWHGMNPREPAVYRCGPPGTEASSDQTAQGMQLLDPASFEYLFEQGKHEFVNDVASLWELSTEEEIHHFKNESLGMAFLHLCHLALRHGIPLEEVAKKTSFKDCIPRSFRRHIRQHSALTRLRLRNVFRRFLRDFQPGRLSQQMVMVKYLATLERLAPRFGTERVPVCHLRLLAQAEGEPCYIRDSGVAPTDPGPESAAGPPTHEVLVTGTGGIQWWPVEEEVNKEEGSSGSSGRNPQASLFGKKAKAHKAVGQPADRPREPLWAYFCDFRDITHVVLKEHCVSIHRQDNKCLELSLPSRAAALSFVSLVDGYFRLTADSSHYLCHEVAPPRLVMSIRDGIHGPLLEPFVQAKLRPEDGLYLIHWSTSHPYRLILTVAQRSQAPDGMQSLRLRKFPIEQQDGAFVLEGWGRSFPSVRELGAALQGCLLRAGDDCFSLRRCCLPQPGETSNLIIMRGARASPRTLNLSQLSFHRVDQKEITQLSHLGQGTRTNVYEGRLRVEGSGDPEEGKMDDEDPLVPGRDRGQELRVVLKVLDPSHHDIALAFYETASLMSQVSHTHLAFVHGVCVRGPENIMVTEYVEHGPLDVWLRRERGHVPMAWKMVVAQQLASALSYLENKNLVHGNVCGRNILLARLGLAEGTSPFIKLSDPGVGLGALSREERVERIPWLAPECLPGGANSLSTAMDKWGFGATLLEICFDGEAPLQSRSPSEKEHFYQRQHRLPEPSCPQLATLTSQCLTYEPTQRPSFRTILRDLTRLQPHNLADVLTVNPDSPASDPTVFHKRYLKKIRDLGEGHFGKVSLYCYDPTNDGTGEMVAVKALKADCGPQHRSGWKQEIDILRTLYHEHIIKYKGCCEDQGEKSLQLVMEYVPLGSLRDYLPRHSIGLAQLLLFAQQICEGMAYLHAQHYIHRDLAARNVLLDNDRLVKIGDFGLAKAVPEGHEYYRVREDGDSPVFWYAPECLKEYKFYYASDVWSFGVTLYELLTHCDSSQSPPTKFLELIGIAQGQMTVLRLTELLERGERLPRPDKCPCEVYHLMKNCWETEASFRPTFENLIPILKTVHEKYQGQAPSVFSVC

| SMILES | DC50 [1] [nM] | DC50 [2] [nM] | DC50 [3] [nM] |
| --- | --- | --- | --- |
| CNc1cc(N2CCc3c(-c4ccc(CN5CCN([C@H]6CC[C@H](c7ccc(-c8ccc9c(c8)n(C)c(=O)n9C8CCC(=O)NC8=O)cc7)CC6)CC5)cn4)cccc32)nn2c(C(=O)N[C@@H]3CC3F)cnc12 (stereo partly drawn) [Example K566] | > 100 | 1 to 10 | > 100 |
| CNc1cc(N2CCc3c(N4CCC(CC5CC6(CCN(C(=O)c7ccc(Cl)c(N8CCC(=O)NC8=O)c7)CC6)C5)CC4)cccc32)nn2c(C(=O)N[C@@H]3C[C@@H]3F)cnc12 [Example K568] | > 100 | 1 to 10 | > 100 |
| CNc1cc(Nc2cccn(-c3ccc(C(=O)NCCCCCCCCc4cncc(N5CCC[C@H](C(=O)Nc6ccc(=O)n(CC(=O)O)c6)C5)c4)cn3)c2=O)nn2c(C(=O)N[C@@H]3C[C@@H]3F)cnc12 [Example K571] | > 100 | > 100 | > 100 |
| CNc1cc(Nc2cccc(CN3CCC(c4cccc5c4n(C)c(=O)n5C4CCC(=O)NC4=O)CC3)c2)nn2c(C(=O)NC3CC3)cnc12 (stereo not drawn) [Example K578] | > 100 | > 100 | > 100 |
| CNc1cc(Nc2cccc(CN3CCC34CN(c3ncc(C#Cc5ccc6c(c5)n(C)c(=O)n6C5CCC(=O)NC5=O)cn3)C4)c2)nn2c(C(=O)NC3CC3)cnc12 (stereo not drawn) [Example K580] | > 100 | > 100 | > 100 |
| CNc1cc(Nc2cccc(CN3CCC([C@@H]4CCN(c5ccc6c(c5)n(C)c(=O)n6C5CCC(=O)NC5=O)C4)CC3)c2)nn2c(C(=O)NC3CC3)ncc12 (stereo partly drawn) [Example K581] | > 100 | < 1 | > 100 |
| CNc1cc(Nc2cccc(CN3CCC4(CCCN(CCC5C=c6c(n(C7CCC(=O)NC7=O)c(=O)n6C)=CC5)C4)C3)c2)nn2c(C(=O)NC3CC3)cnc12 (stereo not drawn) [Example K582] | > 100 | > 100 | > 100 |
| CNc1cc(Nc2cccc(CN3CCC4(CC3)CC(Cc3ccc5c(c3)n(C)c(=O)n5C3CCC(=O)NC3=O)C4)c2)nn2c(C(=O)NC3CC3)cnc12 (stereo not drawn) [Example K584] | > 100 | > 100 | > 100 |
| CNc1cc(Nc2cccc(CN3CCC(c4ncc(-c5ccc6c(c5)n(C)c(=O)n6C5CCC(=O)NC5=O)cn4)CC3)c2)nn2c(C(=O)NC3CC3)cnc12 (stereo not drawn) [Example K585] | > 100 | 1 to 10 | > 100 |
| CNc1cc(Nc2cccc(CN3CC4(CCN(c5ccc(-c6ccc7c(c6)n(C)c(=O)n7C6CCC(=O)NC6=O)cn5)CC4)C3)c2)nn2c(C(=O)NC3CC3)cnc12 (stereo not drawn) [Example K586] | > 100 | 1 to 10 | > 100 |
| CNc1cc(Nc2cccc(CN3CCC(N4CC(N5CCN(c6ccc7c(c6)n(C)c(=O)n7C6CCC(=O)NC6=O)CC5)C4)CC3)c2)nn2c(C(=O)NC3CC3)cnc12 (stereo not drawn) [Example K589] | > 100 | < 1 | > 100 |
| CNc1cc(Nc2cccc(CN3CCC(OC4CC(c5cccc6c5n(C)c(=O)n6C5CCC(=O)NC5=O)C4)CC3)c2)nn2c(C(=O)NC3CC3)cnc12 (stereo not drawn) [Example K590] | > 100 | < 1 | > 100 |
| CNc1cc(Nc2cccc(CN3CC4(CCN(c5cccc6c5n(C)c(=O)n6C5CCC(=O)NC5=O)CC4)C3)c2)nn2c(C(=O)NC3CC3)cnc12 (stereo not drawn) [Example K592] | > 100 | 1 to 10 | > 100 |
| CNc1cc(Nc2cccc(CN(C)C3CCN(c4ccc5c(c4)n(C)c(=O)n5C4CCC(=O)NC4=O)CC3)c2)nn2c(C(=O)NC3CC3)cnc12 (stereo not drawn) [Example K593] | > 100 | > 100 | > 100 |
| CNc1cc(Nc2cccc(CN3CCN(c4cccc5c4n(C)c(=O)n5C4CCC(=O)NC4=O)CC3)c2)nn2c(C(=O)NC3CC3)cnc12 (stereo not drawn) [Example K594] | > 100 | > 100 | > 100 |
| CNc1cc(Nc2cccc(CN3CCC(OCC#Cc4cccc5c4n(C)c(=O)n5C4CCC(=O)NC4=O)CC3)c2)nn2c(C(=O)NC3CC3)cnc12 (stereo not drawn) [Example K595] | > 100 | 1 to 10 | > 100 |
| CNc1cc(Nc2cccc(CN3CCC(OC4CC(c5ccc6c(c5)n(C)c(=O)n6C5CCC(=O)NC5=O)C4)CC3)c2)nn2c(C(=O)NC3CC3)cnc12 (stereo not drawn) [Example K596] | > 100 | < 1 | > 100 |

Second part, the compound after the results:

| DC50 [1] [nM] | DC50 [2] [nM] | DC50 [3] [nM] | SMILES |
| --- | --- | --- | --- |
| > 100 | < 1 | > 100 | CNc1cc(Nc2cccc(CN3CCN(c4ccc(-c5ccc6c(c5)n(C)c(=O)n6C5CCC(=O)NC5=O)cc4)CC3)c2Cl)nn2c(C(=O)N[C@@H]3C[C@@H]3F)cnc12 (stereo partly drawn) [Example K564] |
| > 100 | > 100 | > 100 | CNc1cc(-c2ccc(CN3CCN(c4ccc(-c5ccc6c(c5)n(C)c(=O)n6C5CCC(=O)NC5=O)cc4)CC3)cc2)nn2c(C(=O)N[C@@H]3C[C@@H]3F)cnc12 (stereo partly drawn) [Example K565] |
| > 100 | < 1 | > 100 | CNc1cc(Nc2cccc(-c3ccc(CN4CCN(C5CCC(c6ccc(-c7ccc8c(c7)n(C)c(=O)n8C7CCC(=O)NC7=O)cc6)CC5)CC4)cn3)c2OC)nn2c(C(=O)N[C@@H]3C[C@@H]3F)cnc12 (stereo partly drawn) [Example K567] |
| > 100 | 1 to 10 | > 100 | CNc1cc(N2CCc3c(N4CCC(CN5CC6(C5)CN(c5ccc(-c7ccc8c(c7)n(C)c(=O)n8C7CCC(=O)NC7=O)cc5)C6)CC4)cccc32)nn2c(C(=O)N[C@@H]3C[C@@H]3F)cnc12 (stereo partly drawn) [Example K573] |
| > 100 | 1 to 10 | > 100 | CNc1cc(N2CCc3c(-c4ccc(CN5CC6(C5)CN(c5ccc(-c7ccc8c(c7)n(C)c(=O)n8C7CCC(=O)NC7=O)cc5)C6)cn4)cccc32)nn2c(C(=O)N[C@@H]3C[C@@H]3F)cnc12 (stereo partly drawn) [Example K574] |
| > 100 | > 100 | > 100 | CNc1cc(Nc2cccc(CN3CCN(c4ccc(-c5ccc6c(c5)n(C)c(=O)n6C5CCC(=O)NC5=O)cc4)CC3)c2OC)nn2c(C(=O)N[C@@H]3C[C@@H]3F)cnc12 (stereo partly drawn) [Example K576] |
| > 100 | 1 to 10 | > 100 | CNc1cc(Nc2cc(F)cc(-c3ccc(CN4CCN(c5ccc(-c6ccc7c(c6)n(C)c(=O)n7C6CCC(=O)NC6=O)cc5)CC4)cn3)c2OC)nn2c(C(=O)N[C@@H]3C[C@@H]3F)cnc12 (stereo partly drawn) [Example K577] |
| > 100 | < 1 | > 100 | CNc1cc(Nc2cccc(CN3CCC(N(C)CC4CCN(c5ccc(-c6ccc7c(c6)n(C)c(=O)n7C6CCC(=O)NC6=O)cc5)C4)CC3)c2)nn2c(C(=O)NC3CC3)cnc12 (stereo not drawn) [Example K583] |
| > 100 | 1 to 10 | > 100 | CNc1cc(Nc2cccc(CN3CCN(C(=O)CCc4ccc(-c5ccc6c(c5)n(C)c(=O)n6C5CCC(=O)NC5=O)cc4)CC3)c2)nn2c(C(=O)NC3CC3)cnc12 (stereo not drawn) [Example K587] |
| > 100 | 1 to 10 | > 100 | CNc1cc(Nc2cccc(CN3CCC4(CCN(c5ccc(-c6ccc7c(c6)n(C)c(=O)n7C6CCC(=O)NC6=O)cc5)C4)C3)c2)nn2c(C(=O)NC3CC3)cnc12 (stereo not drawn) [Example K588] |
| > 100 | > 100 | > 100 | CNc1cc(Nc2cccc(CN3CCN(c4ccc5c(c4)n(C)c(=O)n5C4CCC(=O)NC4=O)CC3)c2)nn2c(C(=O)NC3CC3)cnc12 (stereo not drawn) [Example K591] |
